Results reported in patent US5614370A, “Assay to identify human C5a antagonists and agonists” (Merck & Co., Inc., priority 1994, dated 1997).
Non-standard residues stand in square brackets, D forms with d. Residues, ends and D or L forms follow the SMILES beside them. No end group written: not given here. Cha = N[C@@H](CC1CCCCC1)C(=O)O; dCha = N[C@H](CC1CCCCC1)C(=O)O

Experiments:
C5a receptor [1] = target: T1, C5a receptor (Homo sapiens, UniProt P21730); assay: Competition binding against 125I-labeled intact C5a on human neutrophil (PMN) membranes; details: for IC50: labeled ligand 125I-C5a, read-out: IC50 exhibited by the unlabeled ligand
T1 construct: followed by a 20 μL aliquot of neutrophil membrane; endogenous in cells
T1 sequence (P21730 1-350): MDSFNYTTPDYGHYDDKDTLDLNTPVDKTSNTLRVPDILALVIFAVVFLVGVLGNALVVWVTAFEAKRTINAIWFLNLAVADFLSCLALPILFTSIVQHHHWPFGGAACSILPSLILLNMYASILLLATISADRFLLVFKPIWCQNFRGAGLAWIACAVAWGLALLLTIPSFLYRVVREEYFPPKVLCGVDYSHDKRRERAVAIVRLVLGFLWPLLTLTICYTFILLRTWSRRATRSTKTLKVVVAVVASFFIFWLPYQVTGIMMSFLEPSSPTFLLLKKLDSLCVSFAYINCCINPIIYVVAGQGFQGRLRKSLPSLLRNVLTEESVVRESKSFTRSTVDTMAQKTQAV
Excerpt: The affinity of these peptides is shown, for example, by radiolabeling intact C5a, and using the unlabeled peptide to compete the labeled C5a from C5a receptor binding sites on cellular membranes. Preparations of polymorphonuclear leukocytes (PMN's) are known to express the C5a receptor, (inhibition of the chemotactic response to C5a of this type of cell is one desirable utility for compounds identified by the instant assay). One method for preparing these membranes is described by Rollins, T. E. et al., [J. Biol. Chem. 264:520-526 (1988); see also U.S. Pat. No. 5,177,190, herein incorporated by reference as a method for isolating and purifying C5a receptor]. Briefly, this involves isolating PMN's in large quantity, disrupting these cells and obtaining the membrane fraction by centrifugation. Protein assay of the membrane preparation allows for standardization of the amount of protein added in any set of membrane binding experiments.
(§1) In FIG. 1, unlabeled C013 is used to compete with ^125 I-labeled C5a. […] In FIG. 2, the C013 is ^125 I labeled. Unlabeled C5a and unlabeled C013 are each used to compete the labeled C013 from C5a binding sites on the membranes. […] In FIG. 3a, ^125 I-C5a is competed from its binding site by unlabeled C064 and unlabeled, natural C5a (as opposed to recombinant C5a, which, however, may also obviously may be used for these purposes). […] In FIG. 3b, the inverse experiment is shown, wherein ^125 I-C064 is displaced by unlabeled C064 and unlabeled nC5a.
Hexapeptides within this class differing only at position X have similar affinities for the C5a receptor. As measured in competition binding experiments against ^125 I-C5a on human neutrophil membranes their IC50 's varied by only a factor of 3, from 25 to 80 nM (Table II):
^2 Binding experiments were carried out with human neutrophil
Binding is initiated by an addition of 20 μL of PMN membrane (typically 0.5 μg of protein) to each tube. After incubation for 90 min. at room temperature 2 ml of 0.05 M HEPES, pH 7.2, containing 0.5% BSA are added to the tube, the contents vortexed and filtered over a Whatman GF/C filter which has been soaked in 0.3% polyethylenimine. An additional 2 ml of buffer are added to the tube and used to wash the filter. All of the test samples are dissolved in DMSO, another water miscible organic solvent, or in an aqueous solvent. Non-specific background was determined by inclusion of a 100-fold excess of unlabeled C5a.
The percent inhibition is calculated according to the following formula: [formula]
Iodination of C5a was carded out with the use of chloramine T. (Rollins, T.E., and Springer, M.S. (1985) J. Biol. Chem. 260, 7157-7160). […] Concentrations of C5a were determined by amino acid analysis and by RIA (Amersham Corp.). Membranes were prepared from human PMN as described by Rollins, T.E., Sciliano, S and Springer, M.S., J. Biol Chem 264 520-526 (1988).

C5a receptor [2] = target: T1, C5a receptor; assay: biochemical; assay type: binding; details: for IC50: read-out: IC50 exhibited by the unlabeled ligand
Protocol: Initially, we attempted to conduct binding studies with ^125 I radiolabeled C009: ^125 I-Tyr Phe Lys Ala Cha Cha Leu dPhe Arg, SEQ.ID:1:, wherein Cha is cyclohexylalanine, and dPhe is the D isomer of phenylalanine. This compound is a C5a agonist displaying a Ki for C5a of 8 nM. The presence of the tyrosine allowed us to radioiodinate the peptide and establish a binding assay in which both C5a (IC50=0.1 nM) and unlabeled C009 (IC50 =10 nM) inhibit the binding of ^125 I-C009 with concentration dependencies similar to those obtained from competition experiments against ^125 I-C5a.
as §1
Peptide (5 nMoles) are added to 40μL of 0.1 M sodium phosphate, pH 7.6, in a tube, followed by 2 mCi of ^125 I in 20 μL. 10 μL of a freshly made 0.5 mg/mL solution of chloramine T is then added. After 30 seconds of incubation, 10 μL of a freshly prepared 2 mg/mL solution of Na2 S2 O3 is added, the tube is vortexed, and the sample loaded onto a Vydac C4 reverse phase column. The column is developed with a TFA/acetonitrile gradient and the iodinated peptide is isolated. The material is stored at 4° C. in the elution buffer.
To 205 μL binding buffer (50 mM HEPES, pH 7.2, containing 5 mM MgCl2, 1mM CaCl2, 0.5% BSA) in a polypropylene tube is added 30,000CPM of the ^125 I peptide in 20 μL, and 5 μL of a known dilution of the test compound or diluent, followed by a 20 μL aliquot of neutrophil membrane [equivalent to 500,000 neutrophils; Rollins, T.E. et al., J. Biol Chem. 260:7157 (1985); see also U.S. Pat. No. 5,177,190, herein incorporated by reference].
The assay mixture is incubated for 2 hours at 29° C. Binding buffer (2 mL) is then added, the tube is vortexed, and the contents filtered over a Wattmann GF/C filter soaked in 0.33% polyethylenimine. An additional aliquot of binding buffer (2 mL) is added to the tube to rinse the tube, and is then used to wash the filter. The filters are removed from the apparatus and counted. Non-specific backgrounds are determined by performing assays in the presence of either 10 nM C5a, or 1 μM unlabeled peptide. Compounds which inhibit the binding of the labeled peptide are considered to be potential active compounds.

human neutrophils = assay: Degranulation, myeloperoxidase (MPO) release from human neutrophils (agonism); assay type: cell-based; details: 0.4 nM C5a or 8 nM IL-8, cells without C089
Protocol: FIG. 5A and 5B. Degranulation and Ca^2+ responses to the hexapeptides. […] The ED50 's for the degranulation are: C5a, 0.5 nM; C028, 0.2 μM; C026, 1 μM. C5a, maximally, released 57% of the total cellular content of MPO. The ability of these molecules to elicite a Ca^2+ -flux is shown in B. The concentrations used for C028 (10 μM), C026 (10 μM), C061 (100 μM) are those which produce a maximal flux. A saturating concentration was also used for C5a (1 nM).
This assay was performed on human neutrophils as previously reported and it is a measure of C5a or peptide induced exocytosis (Rollins, T. E. and Springer, M. S. (1985) J. Biol. Chem. 260, 7157-7160).
The functional properties of two of the peptides, C026, and C028, were originally described by Mollison et. al (Mollison, K. W., Krause, R. A., Fey, T. A., Miller, L., Wiedeman, P. e., Kawai, M., Lane, B., Luly, J. R. and Carter, G. W. (1992) FASEB J. 6, A2058). […] We have reinvestigated the degranulating activities of these peptides as measured by the release of myeloperoxidase (MPO) from human neutrophils. […] The EC50 /IC50 (degranulation/binding) for C028 is 8, the same as that measured for C5a (Table II, FIG. 5A). […] However, the difference in activity between C026 and C028 is significant and reproducible. Since the structural difference between the two is the substitution of an aromatic for an aliphatic residue (Phe for Cha) we chose to make additional changes at position 5 which further increased aromaticity. […] To further examine whether the differences in activity between the peptides reflects the increased aromaticity we synthesized a molecule with Leu, an aliphatic amino acid, at position 5 (C068, Table II).

**Q.** For “Tyr Phe Lys Pro dCha Cha dArg (YFKP[dCha][Cha][dR]) [C064, name also used for the 125I-Tyr peptide]”, which IC50 (C5a receptor [1]) is on record?
**A.** 8 nM

**Q.** And the “non-specific binding of the labeled peptide” value (C5a receptor [2])?
**A.** low non-specific binding

**Q.** What about the IC50 (C5a receptor [2]; labeled ligand 125I-C064) of the same molecule?
**A.** 1.5 nM

**Q.** Which “release of total cellular MPO” value (human neutrophils) does the source give for IL-8: chemokine IL-8 here?
**A.** 19%

**Q.** CC(C)C[C@H](NC(=O)CNC(=O)[C@H](CC1CCCCC1)NC(=O)[C@H](C)NC(=O)[C@H](CCCCN)NC(=O)[C@H](Cc1ccccc1)NC(=O)[C@@H](N)Cc1ccc(O)cc1)C(=O)N[C@H](Cc1ccccc1)C(=O)N[C@@H](CCCNC(=N)N)C(=O)O [C013, Tyr Phe Lys Ala Cha Gly Leu dPhe Arg] (H-YFKA[Cha]GL[dF]R-OH) was tested. Which IC50 (C5a receptor [1]) did it give?
**A.** 14 nM

**Q.** What about the “binding affinity relative to 125I-C009” value (C5a receptor [2]) of the same molecule?
**A.** about 30 fold

**Q.** What about the IC50 (C5a receptor [2]; labeled ligand 125I-C013) of the same molecule?
**A.** 1 nM

**Q.** With “^125 I-Tyr Phe Lys Ala Cha Cha Leu dPhe Arg [125I-C009]” as the molecule, how does the “non-specific binding of the labeled peptide” value (C5a receptor [2]) read?
**A.** high non-specific binding

**Q.** How did the “effect on binding of C5a COOH-terminal peptides in words” value (C5a receptor [2]; 125I-C009 for fMLP and IL-8, COOH-terminal peptides for L-584,020) turn out when CSCC[C@H](NC=O)C(=O)N[C@@H](CC(C)C)C(=O)N[C@@H](Cc1ccccc1)C(=O)O [fMLP, N-formyl-methionyl-leucyl-phenylalanine, reference compound] was run?
**A.** neither

B1: 125I-C5a: C5a iodinated with chloramine T (100-200 mCi/mg) (protein, UniProt P01031 678-751, looked up)
C5a anaphylatoxin: TLQKKIEEIAAKYKHSVVKKCCYDGACVNNDETCEQRAARISLGPRCIKAFTECCVVASQLRANISHKDMQLGR
modifications: C5a anaphylatoxin 125I label
**Q.** For B1, which “affinity of radioiodinated C5a in words” value (C5a receptor [1]; 100-200 mCi/mg) is on record?
**A.** same affinity for the receptor as did the nonderivatized protein
